Positions of bridges follow the written chain, without caps; N, C: chain ends. Non-standard residues stand in square brackets, D forms with d. Residues, ends and D or L forms follow the SMILES beside them. No end group written: not given here.
What was measured:
[1] = biological target: T1, ∂-opioid receptors (Homo sapiens, UniProt P41143); experiment: Opioid receptor membrane binding (3H-Diprenorphine)
T1 construct: purchased RBI/Sigma 0-116
Procedure: For opioid receptor binding, membranes (0-116, RBI/Sigma) are diluted into binding buffer (75 mM Tris pH 7.4, 12.5 mM MgCl2 and 2 mM EDTA). For example, 10 μl of membranes are diluted in 500 μl of binding buffer (i.e., 1:50 dilution), which is aliquoted into labelled tubes. Cold competitor or test competitor is added (e.g. 5 μl of 100× stock solution; 5 μl of 100 μM naltrindole solution (N-115, RBI/Sigma in DMSO). Radioligand is then added (^3H-Diprenorphine, TRK 1060, Amersham, 250 μCi in 250 μl, 10.5 μM at 95 Ci/mmol). For competition studies, 0.5 nM is used. A 100× stock (i.e., […]) is made by diluting the commercial stock 1:210 in binding buffer, and 5 μl is added to every tube. Control tubes have radioligand but no membranes. The mixtures are vortexed, then spun very briefly. The mixtures are then incubated for 1 hour at 27° C. in a water bath. The mixture is filtered through GF/C filters over a vacuum. Each filter is pre-soaked in polyethyleneimine (0.3% in water; add 1 ml of 10% stock (P-261; RBI/Sigma) to 33 ml of MilliQ water). The tubes are washed with 2-3 ml of wash buffer (50 mM Tris pH 7.4) and the wash filtered. The filters are then rinsed with 3×5 ml of wash buffer, air dried, placed in a scintillation vial and 4.5 ml of scintillant added. The activity on the filter is then determined.

[2] = test system: fMLP induced THP-1 migration; experiment: THP-1 chemotaxis assay, fMLP as chemoattractant; type: cell-based; settings: Homo sapiens, fMLP is not a chemokine, read-out: ED50, fMLP chemotaxis assay
Procedure: To determine whether an agent inhibits a chemokine-induced activity, such as macrophage recruitment, varying amounts of the agent are mixed with cells in the presence of a known chemoattractant. For example, a range of known concentrations of an agent, e.g., a chemokine peptide, is incubated with a defined number (e.g., 10^4-10^6) of human THP-1 monocyte cells in individual wells of the top compartment of a trans-well plate. Chemokine (such as MCP-1, MIP1α, IL8 or SDF-1α), at a concentration known to cause significant migration of THP-1 cells in the trans-well migration assay, is placed in the lower compartment (FIG. 1). Cells are then incubated at 37° C. for a period sufficient to allow migration, e.g., 4 hours. After incubation, the cells are gently removed from the top of the filter with a pipette, 20 μl of 20 mM EDTA in simple PBS is added into each top well, and incubated for 20 minutes at 4° C. The filter is carefully flushed with media using a gentle flow, and removed. A standard curve consisting of a two-fold dilution series of THP-1 cells (in 29 μl) is prepared to accurately quantify the number of cells that have migrated. […] Absorbance of converted dye is measured at a wavelength of 595 nm using an ELISA plate reader. The number of migrated cells in each well is then determined by interpolation of the standard curve (see also Imai et al., J. Biol. Chem., 272, 15036 (1997)). […]

[3] = test system: chemokine receptors on the surface of Jurkat cells; experiment: Binding to chemokine receptors on Jurkat cells; parameters: species or system human
Procedure: For Scatchard analysis, the absorbance readings at 450 nm were calibrated, by reference to a standard curve in which known amounts of labeled peptide were coupled to derivatized sepharose beads (activated thiol-sepharose 4B; Sigma T8512) via the cysteine residue in each peptide. Briefly, known amounts (1 fmol to 1 pmol) of biotin-labeled peptide were incubated with 1 mg of activated thiol-sepharose beads in 100 μl of PBS at 37° C. for 1 hour. Free activated thiols were then blocked by addition of cysteine to a final concentration of 10 mM. The peptide-conjugated beads were then washed 5 times in PBS and treated exactly as for the cells described above. The absorbance at 450 nm obtained when a known amount of peptide was coupled to the beads was used to construct a standard curve which was used to convert the absorbance readings obtained with cells into number of molecules of labeled peptide which had bound.

T1 sequence (P41143 whole entry): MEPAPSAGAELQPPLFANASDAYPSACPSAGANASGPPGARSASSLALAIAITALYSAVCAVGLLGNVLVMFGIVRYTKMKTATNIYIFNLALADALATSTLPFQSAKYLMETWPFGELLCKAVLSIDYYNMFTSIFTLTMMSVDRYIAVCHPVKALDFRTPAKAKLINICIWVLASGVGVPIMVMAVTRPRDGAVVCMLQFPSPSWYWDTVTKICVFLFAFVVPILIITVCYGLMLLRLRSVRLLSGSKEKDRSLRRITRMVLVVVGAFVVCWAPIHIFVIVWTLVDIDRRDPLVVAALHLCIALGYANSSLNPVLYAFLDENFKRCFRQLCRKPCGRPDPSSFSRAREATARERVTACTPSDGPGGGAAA

Molecule: CC[C@@H](C)[C@H]1NC(=O)[C@@H](CCC(N)=O)NC(=O)[C@H](N)CSSC[C@H](C(N)=O)NC(=O)[C@@H](CC(C)C)NC(=O)[C@@H](CC(=O)O)NC(=O)[C@H]2CCCN2C(=O)[C@@H](CCCCN)NC(=O)[C@@H](CCC(N)=O)NC(=O)[C@@H](CCCCN)NC(=O)[C@@H](Cc2c[nH]c3ccccc23)NC1=O (H-[dC][dQ][dI][dW][dK][dQ][dK][dP][dD][dL][dC]-NH2; disulfide 1-11; N-terminus assumed)
- EC50 [1]: > 100 µM

Molecule: C=CCCCCCCCCC(=O)N[C@H]1CCC(=O)NC1=O [A-I (NR58.4), [3S]-3-(undec-10-enoylamino)piperidine-2,6-dione]
- EC50 [2]: > 100 µM

Molecule: SYRRITSSKCPKEAV [peptide 2(1-15)[MCP-1]]
- B, binding sites on Jurkat cells [3]: 55,000 sites/cell
- Ka, chemokine receptors on the surface of Jurkat cells [3]: 250 nM

— patent publication US7989466B2, “Methods to inhibit or augment an inflammatory response” (Cambridge Enterprise Limited, priority 1999, dated 2011)
